Assay results: patent publication US20250035634A1, “A METHOD FOR DETECTING CLUSTERING OF RAS PROTEIN” (Nanyang Technological University, priority 2021, published 2025)

How the values were obtained:
KRasG12V = target: T1, KRasG12V (Homo sapiens, UniProt P01116, G12V); assay: nanobar-guided KRasG12V clustering (Enrichment Index) in U2OS cells; assay type: cell-based; conditions: for Enrichment Index (EI) of KRasG12V: mean±s.e.m.
T1 construct: through full-length KRasG12V, HRasG12V and the truncated Ras isoforms tK-Ras and tH-Ras; expressed in transfected cells; host or cells: U2OS
Description: Arrays of nanostructures on SiO2 surface of bar shape are fabricated with two curved ends and flat sidewalls using electron beam lithography (EBL). […] To conduct EBL, the chips are spin-coated with an electron-sensitive layer, 300 nm of positive electron-beam resist poly (methyl methacrylate) (PMMA) (MicroChem), followed by a conductive polymer layer of AR-PC 5090.02 (Allresist). Desired patterns are then written on the polymer through exposure to EBL (FEI Helios NanoLab), and developed in isopropanol:methylisobutylketone (IPA:MIBK)=3:1 solution. Subsequently, a 30-nm chromium (Cr) mask is deposited onto the surface via thermal evaporation (UNIVEX 250 Benchtop) and lift-off in acetone. Nanostructures are generated through reactive ion etching with the mixture of CF4 and CHF3 (Oxford Plasmalab 80). After fabrication, scanning electron microscopy (SEM) (FEI Helios NanoLab) imaging can be performed after 10-nm Cr coating to measure the dimensional properties of nanostructures (FIG. 1, top). Before use, the nanostructured-chip is cleaned by Chromium Etchant (Sigma-Aldrich) to remove the remaining metal layer.
To culture the cells onto the nanostructured chip, the chip is first cleaned by air plasma treatment (Harrick Plasma) and sterilized by UV radiation. Additional coating reagents like extracellular matrix (ECM) protein components (e.g., fibronectin or gelatin, Sigma-Aldrich) can be added to promote cell attachment. After coating, the cells are plated and maintained in DMEM (Gibco) supplemented with fetal bovine serum (FBS, Life Technologies) and Penicillin-Streptomycin (Life Technologies) in a standard incubator at 37° C. with 5% CO2.
The Ras proteins can be expressed transiently by transfecting the fluorescent protein-tagged Ras plasmid (e.g., EGFP-KRasG12V, EGFP, enhanced green fluorescent protein) into cells using the Lipofectamine (Life Technologies) protocol or electroporation (e.g., Neon Transfection System, Thermo Fisher). If necessary, the transfection parameters (e.g., the amount of the plasmid, starvation time and expression time) and electroporation parameters (e.g., pulse voltage, pulse width, pulse number) can be optimized to reach the expected transfection efficiency and expression level. FBS can be removed at the expression step from the culture medium to prevent Ras activation.
To evaluate the effect of a Ras inhibitor on disrupting the Ras clusters, a gradient concentration and several treatment durations can be selected to determine the effective window. A control group with no treatment should be conducted at the same time. Before and after treatment of the same batch of cells can also be compared.
Cell imaging is performed with laser scanning confocal microscopy (Zeiss LSM 800 with Airyscan) and a Plan-Apochromat 100×/1.4 oil objective. EGFP is excited at 488 nm and detected at 490-570 nm. RFP is excited at 561 nm and detected at 570-645 nm. Images were taken with a resolution of 512×512 pixels, 16-bit and 124 nm pixel size. A scanning speed of 20 s/image and an averaging mode of 4 times/line can be applied. During imaging, the cells are maintained in live cell imaging solution (Thermo Fisher) at 37° C. in an on-stage incubator. […] The images are conducted with a single snap shot for display of Ras variants and the quantification. For the imaging of co-expressed K-Ras variants and CRaf-RBD, z-stack images can be taken and averaged for display and the intensity profiles. The calculation of Pearson correlation coefficient is also based on single snap shot.
To quantify the nanobar-guided clustering of Ras variants, the fluorescence intensity ratio at the nanobar end to the flat sidewall (i.e. Enrichment Index, EI) is calculated. The background signals of each image are firstly subtracted by the rolling ball algorithm in ImageJ (radius=3 pixels for 250 nm diameter nanobars). Next, the nanobars covered by the cell to be analyzed are identified by a custom-written MATLAB (MathWorks) code. […]

Calu-1 cells = conditions: 24 hrs, read-out: IC50, MTT assay growth inhibition; cited from earlier work
HCT-116 cells = conditions: 24 hrs, read-out: IC50, MTT assay growth inhibition; cited from earlier work
ASPC-1 cells = conditions: 24 hrs, read-out: IC50, MTT assay growth inhibition; cited from earlier work
K-Ras = target: T2, K-Ras (Homo sapiens, UniProt P01116); conditions: Hela cells, 4 hrs; read-out: IC50, NanoBit assay measuring K-Ras activation; cited from earlier work
T2 construct: host or cells: HeLa

HRasG12V = target: T3, HRasG12V (Homo sapiens, UniProt P01112, G12V); assay: nanobar-guided HRasG12V clustering (Enrichment Index) in U2OS cells; assay type: cell-based
T3 construct: through full-length KRasG12V, HRasG12V and the truncated Ras isoforms tK-Ras and tH-Ras; expressed in transfected cells; host or cells: U2OS
Description: Arrays of nanostructures on SiO2 surface of bar shape are fabricated with two curved ends and flat sidewalls using electron beam lithography (EBL). […] To conduct EBL, the chips are spin-coated with an electron-sensitive layer, 300 nm of positive electron-beam resist poly (methyl methacrylate) (PMMA) (MicroChem), followed by a conductive polymer layer of AR-PC 5090.02 (Allresist). Desired patterns are then written on the polymer through exposure to EBL (FEI Helios NanoLab), and developed in isopropanol:methylisobutylketone (IPA:MIBK)=3:1 solution. Subsequently, a 30-nm chromium (Cr) mask is deposited onto the surface via thermal evaporation (UNIVEX 250 Benchtop) and lift-off in acetone. […]
Cell imaging is performed with laser scanning confocal microscopy (Zeiss LSM 800 with Airyscan) and a Plan-Apochromat 100×/1.4 oil objective. EGFP is excited at 488 nm and detected at 490-570 nm. RFP is excited at 561 nm and detected at 570-645 nm. […] The images are conducted with a single snap shot for display of Ras variants and the quantification. […]
To quantify the nanobar-guided clustering of Ras variants, the fluorescence intensity ratio at the nanobar end to the flat sidewall (i.e. Enrichment Index, EI) is calculated. […] Next, the nanobars covered by the cell to be analyzed are identified by a custom-written MATLAB (MathWorks) code. […]

SMILES: COc1ccc([C@@]23Oc4cc(OC)cc(OC)c4[C@]2(O)[C@H](O)[C@H](C(=O)N(C)C)[C@H]3c2ccccc2)cc1 [rocaglamide]
- detection limit: concentration at which effect on KRasG12V clustering is detected (KRasG12V; 1 hr treatment): 25 nM
- IC50 (KRasG12V; KRasG12V, 1 hr, one-phase decay fit of EI, read-out: IC50 of the nanobar assay, effect on K-Ras clustering): 18.4 nM
- effect on bar-end accumulated clustering of KRasG12V (KRasG12V; drug treatment vs DMSO, U2OS cells on nanobars): significant reduction
- Enrichment Index (EI) of KRasG12V (KRasG12V; rocaglamide 25 nM, 1 hr): 1.64±0.018
- detection time: treatment time giving significant reduction of KRasG12V clustering (KRasG12V; rocaglamide 50 nM): 15 min
- Enrichment Index (EI) of KRasG12V (KRasG12V; rocaglamide 50 nM, 15 mins): 1.72±0.032
- Enrichment Index (EI) of KRasG12V (KRasG12V; rocaglamide 50 nM, 1 hr): 1.55±0.021
- Enrichment Index (EI) of KRasG12V (KRasG12V; rocaglamide 50 nM, 4 hrs): 1.64±0.024
- Enrichment Index (EI) of KRasG12V (KRasG12V; rocaglamide 100 nM, 1 hr, U2OS cells): 1.58±0.027
- IC50 (Calu-1 cells): 11.9 nM
- IC50 (HCT-116 cells): 9.47 nM
- IC50 (ASPC-1 cells): 10.2 nM
- IC50 (K-Ras): 24.8 nM
- Enrichment Index (EI) of HRasG12V (HRasG12V; rocaglamide 100 nM, 4 hrs, U2OS cells, mean±s.e.m.): 1.87±0.029
- effect on bar-end accumulated clustering of HRasG12V (HRasG12V; same drug treatment vs DMSO, U2OS cells on nanobars): no obvious changes
